Reference: the supplement of paper PMC10307832

Experiments:
Assay in all cases: relative viability (nuclei count vs DMSO), 5 days (fraction); higher = more cells survive
Vemurafenib + AZD7762 = compound: CCCS(=O)(=O)Nc1ccc(F)c(C(=O)c2c[nH]c3ncc(-c4ccc(Cl)cc4)cc23)c1F [Vemurafenib] + NC(=O)Nc1cc(-c2cccc(F)c2)sc1C(=O)N[C@H]1CCCNC1 [AZD7762] (partner 0.2 µM)
Method in brief: (§1)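 A single step with final 0.05% Triton X-100, 1% formaldehyde and 1 ug/ml Hoechst fixed the cells and stained nuclei 5 days after treatment. Lung cancer cell lines in 1536-well plates had been treated by pin tool the day after seeding with one drug alone or a fixed anchor-drug dose plus five library-drug doses (not always all listed) in √10 steps, and nuclei were counted on 4× images. Relative viability is the ratio of nuclei in treated wells to nuclei in vehicle wells, taken as the median of duplicate plates.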

Alpelisib + Lapatinib = compound: Cc1nc(NC(=O)N2CCC[C@H]2C(N)=O)sc1-c1ccnc(C(C)(C)C(F)(F)F)c1 [Alpelisib] + CS(=O)(=O)CCNCc1ccc(-c2ccc3ncnc(Nc4ccc(OCc5cccc(F)c5)c(Cl)c4)c3c2)o1 [Lapatinib] (partner 2 µM)
Method in brief: as §1

Alpelisib + Linsitinib = compound: Cc1nc(NC(=O)N2CCC[C@H]2C(N)=O)sc1-c1ccnc(C(C)(C)C(F)(F)F)c1 [Alpelisib] + C[C@]1(O)C[C@@H](c2nc(-c3ccc4ccc(-c5ccccc5)nc4c3)c3c(N)nccn32)C1 [Linsitinib] (partner 1 µM)
Method in brief: as §1

Alpelisib + Dasatinib = compound: Cc1nc(NC(=O)N2CCC[C@H]2C(N)=O)sc1-c1ccnc(C(C)(C)C(F)(F)F)c1 [Alpelisib] + Cc1nc(Nc2ncc(C(=O)Nc3c(C)cccc3Cl)s2)cc(N2CCN(CCO)CC2)n1 [Dasatinib] (partner 0.075 µM)
Method in brief: as §1

Row | Cell Line | relative viability (Vemurafenib + AZD7762; first compound 0.03162 µM) | relative viability (Vemurafenib + AZD7762; first compound 0.1 µM) | relative viability (Vemurafenib + AZD7762; first compound 0.3162 µM) | relative viability (Vemurafenib + AZD7762; first compound 1 µM) | relative viability (Alpelisib + Lapatinib; first compound 0.04 µM) | relative viability (Alpelisib + Lapatinib; first compound 0.1265 µM) | relative viability (Alpelisib + Lapatinib; first compound 0.4 µM) | relative viability (Alpelisib + Lapatinib; first compound 1.265 µM) | relative viability (Alpelisib + Lapatinib; first compound 4 µM) | relative viability (Alpelisib + Linsitinib; first compound 0.04 µM) | relative viability (Alpelisib + Linsitinib; first compound 0.1265 µM) | relative viability (Alpelisib + Linsitinib; first compound 0.4 µM) | relative viability (Alpelisib + Linsitinib; first compound 1.265 µM) | relative viability (Alpelisib + Linsitinib; first compound 4 µM) | relative viability (Alpelisib + Dasatinib; first compound 0.04 µM) | relative viability (Alpelisib + Dasatinib; first compound 0.1265 µM) | relative viability (Alpelisib + Dasatinib; first compound 0.4 µM) | relative viability (Alpelisib + Dasatinib; first compound 1.265 µM) | relative viability (Alpelisib + Dasatinib; first compound 4 µM)
1 | NCI-H596 | 1.11 | 1.05 | 0.801 | 1.02 | 0.98 | 1.02 | 0.825 | 0.54 | 0.413 | 1.05 | 1.03 | 0.867 | 0.555 | 0.477 | 0.564 | 0.67 | 0.578 | 0.337 | 0.385
2 | BEN | 0.566 | 0.761 | 0.392 | 0.638 | 0.715 | 0.618 | 0.88 | 0.688 | 0.708 | 0.859 | 0.857 | 1.14 | 0.828 | 0.959 | 0.318 | 0.23 | 0.38 | 0.333 | 0.29
3 | LU99A | 0.369 | 0.353 | – | 0.385 | 0.873 | 0.917 | 1.02 | 0.666 | 0.56 | 0.501 | 0.477 | 0.548 | 0.427 | 0.311 | 0.446 | 0.482 | 0.554 | 0.409 | 0.379
4 | RERF-LC-KJ | 0.874 | 1.01 | 0.663 | 1.08 | 0.795 | 0.773 | 0.867 | 0.64 | 0.735 | 0.816 | 0.878 | 0.823 | 0.734 | 0.749 | 0.766 | 0.733 | 0.758 | 0.475 | 0.541
5 | NCI-H1944 | 0.515 | – | 0.426 | 0.57 | 0.815 | 1.04 | 0.763 | 0.621 | 0.451 | 0.985 | 1.2 | 1.17 | 0.858 | 0.543 | 0.208 | 0.217 | 0.203 | 0.163 | 0.144
6 | HARA | 0.0775 | 0.292 | 0.168 | 0.37 | 0.747 | 0.699 | 0.46 | 0.305 | 0.209 | 0.885 | 0.947 | 1.08 | 0.719 | 0.358 | 0.291 | 0.281 | 0.215 | 0.174 | 0.155
7 | A-427 | 0.696 | 0.709 | – | 0.792 | 1.03 | 0.914 | 0.967 | 0.926 | 1.04 | 1.11 | 1.14 | 1.22 | 1.01 | 1.09 | 0.618 | 0.579 | 0.704 | 0.559 | 0.638
8 | NCI-H2347 | 0.744 | 0.744 | 0.664 | 0.884 | 0.991 | 0.989 | 1.33 | 0.873 | 0.83 | 0.997 | 0.941 | 1.03 | 0.84 | 0.952 | 0.298 | 0.3 | 0.316 | 0.313 | 0.273
9 | NCI-H1975 | 0.689 | 0.697 | 0.396 | 0.654 | 0.874 | 0.862 | 0.889 | 0.619 | 0.483 | 0.96 | 0.915 | 0.91 | 0.67 | 0.548 | 0.322 | 0.309 | 0.329 | 0.176 | 0.112
10 | HCC-15 | 1.05 | 1.22 | 1.17 | 1.1 | 0.897 | 0.858 | 0.94 | 0.823 | 0.725 | 0.892 | 0.873 | 0.878 | 0.863 | 0.767 | 0.559 | 0.587 | 0.56 | 0.379 | 0.31
11 | NCI-H23 | 0.203 | 0.178 | 0.154 | 0.21 | 1.09 | 0.845 | 1.04 | 0.621 | 0.839 | 0.527 | 0.576 | 0.672 | 0.524 | 0.513 | 0.818 | 0.65 | 0.702 | 0.535 | 0.418
12 | NCI-H1734 | 0.568 | 0.533 | 0.371 | 0.559 | 1.09 | 0.989 | 1.11 | 0.771 | 0.373 | 0.814 | 0.885 | 0.875 | 0.71 | 0.489 | 0.42 | – | 0.394 | 0.244 | 0.208
13 | HCC-366 | 0.305 | 0.213 | – | 0.259 | 1.04 | 1.02 | 1.14 | 0.824 | 0.535 | 0.716 | 0.519 | 0.375 | 0.327 | 0.152 | 0.556 | 0.596 | 0.427 | 0.34 | 0.207
14 | LXF-289 | 1.04 | 1.12 | 1.04 | 1.25 | 0.865 | 0.921 | 0.958 | 0.832 | 0.956 | 0.935 | 0.952 | 1.05 | 0.952 | 0.996 | 0.257 | 0.164 | 0.177 | 0.121 | 0.114
15 | NCI-H838 | 0.899 | 0.955 | 0.709 | 0.918 | 0.877 | 1.03 | 1.01 | 0.774 | 0.696 | 0.969 | 1.02 | 0.983 | 0.807 | 0.956 | 0.275 | 0.375 | 0.296 | 0.228 | 0.215
16 | NCI-H1993 | 0.657 | – | 0.804 | 0.966 | 0.775 | 0.676 | 0.913 | 0.774 | 0.711 | 0.732 | 0.737 | 0.762 | 0.702 | 0.749 | 0.532 | 0.469 | 0.508 | 0.454 | 0.569
17 | NCI-H1437 | 1.14 | 1.04 | 0.943 | 1.09 | 0.756 | 0.91 | 0.772 | 0.616 | 0.602 | 1.06 | 1.02 | 1.05 | 0.827 | 0.844 | 0.368 | 0.338 | 0.358 | 0.309 | 0.342
